Literature values, collected in US20090004306A1, “Composition for treatment of diabetes and maintaining healthy blood glucose levels” (priority 2007, published 2009).

Legend:
[1] = Kim study

Q: With `[Cr]` [chromium] as the compound, how does the “glucose levels and related variables” value (people with glucose intolerance and type 1, type 2, gestational, and steroid-induced diabetes) read?
A: Its value is “improve glucose levels and related variables”.

Q: For `O=C/C=C/c1ccccc1` [cinnamaledhyde], which “hypoglycemic properties / blood glucose level” value [1] is on record?
A: Its value is “exhibit hypoglycemic properties”.

Q: With chromium picolinate as the compound, how does the “insulin sensitivity and glycemic control” value (ample intakes, individuals and diabetics) read?
A: Its value is “promote insulin sensitivity in many individuals and improve glycemic control in some diabetics”.
